The source of these data is patent US20260118357A1, “TETRA-FUNCTIONAL CHEMICAL PROBE AND METHOD FOR IDENTIFYING TARGET MEMBRANE PROTEIN FROM LIVING CELL OR LIVING TISSUE BY USING SAID PROBE” (priority 2019, published 2026).

Common to all, as to format: cell-based
The subject of experiment [1] is GABA receptor subunits (Gabra1, Gabra2, Gabra5, Gabrg2). Put plainly: Isolation and detection of target molecule from living tissue (brain slices) using the probe, LC-MS. Particulars: DBA/2CrSlc mouse brain slices, CPF-202 302 nm UV 1 minute, CPF-242 365 nm UV 15 minutes, FIGS. 3 and 4. The protocol:
(§1) A DBA/2CrSlc mouse was anesthetized by isoflurane inhalation and then decapitated, and the brain was quickly removed. The removed brain was immersed in artificial cerebrospinal fluid (ACSF) at 0° C. for 60 seconds while being continuously bubbled with a gas mixture (95% O2, 5% CO2). The olfactory bulb and cerebellum were removed with a scalpel, and the brain was fixed to the stage of a vibrating blade microtome (Leica, VT1200) using instant glue. Sliced sections (thin sections having a thickness of 0.3 mm) of the brain containing the striatum and hippocampus were prepared in ACSF at 0° C. continuously bubbled with the gas mixture. The sliced sections were placed in a dish containing artificial cerebrospinal fluid. An unmodified ligand or DMSO was added, and the dish was allowed to stand at room temperature for 5 minutes. Subsequently, compound (CPF-224) produced in Production Example 10 or compound (CPF-202) produced in Production Example 8 was added, and the dish was allowed to stand at room temperature for 30 minutes. The solution was removed, and the sliced sections were irradiated with UV light (in the cases of CPF-224 and CPF-202, 302 nm UV light for 1 minute; in the case of CPF242, 365 nm UV light for 15 minutes). The sliced sections were washed and collected with PBS, and the supernatant was removed by centrifugation (3000×g, 4° C., 5 minutes). The obtained pellets were analyzed by the same method as in Test Example 1. The analysis was performed in two independent tests, and the results can be expressed as a ratio relative to those in the group treated with the unmodified ligand.

For experiment [2], the system named is AMPA-type glutamate receptors (Gria1, Gria2, Gria3, Gria4). Described as above. Particulars: DBA/2CrSlc mouse brain slices, 302 nm UV 1 minute, two independent tests, FIG. 2. The protocol: as §1
The target in experiment [3] is T1, human dopamine receptor D2 (DRD2) (Homo sapiens, UniProt P14416).
T1 construct: expressed in transfected cells; host or cells: CHO-K1
Nature of the experiment: Isolation and detection of target molecule from living cells using the probe (UV crosslinking, streptavidin enrichment, LC-MS). Particulars: CHO-K1 cells stably expressing human DRD2; 302 nm UV 1 minute; LC-MS LFQ; two independent tests; FIG. 1. As to the method: CHO-K1 cells stably expressing human dopamine receptor D2 (DRD2) were cultured on a 10-cm plate until they became confluent.
The cells were washed with a medium, and the medium was replaced with a medium containing DMSO or an unmodified ligand, followed by a reaction for 30 minutes. Subsequently, the medium was discarded and replaced with a medium containing compound (CPP-127) synthesized in Production Example 12, and the cells were allowed to stand at 37° C. for 30 minutes. The medium was discarded, and the cells were washed with PBS. PBS (1 ml) was added to the cells on the plate, and then the cells were irradiated with 302 nm UV light for 1 minute using a UV crosslinker. The cells were collected with a cell scraper after UV irradiation, and the collected cell pellets were cryopreserved at −80° C.
The cryopreserved cells were suspended in 50 mM Tris Homogenate Buffer (pH 7.4, 2.5 mM EDTA, 5 mM MgCl2, 320 mM sucrose) and homogenized using a sonicator. […]
The obtained tryptic digest was desalted and purified, and protein analysis was performed by LC-MS. […] A full scan MS spectrum was acquired in the m/z range of 380 to 1600, and a product ion spectrum was measured in data dependent acquisition mode. The data obtained by LC-MS were analyzed by Proteome Discoverer 2.2 analysis software (PD 2.2, Thermo Fisher Scientific). […]

T1 sequence (P14416 whole entry): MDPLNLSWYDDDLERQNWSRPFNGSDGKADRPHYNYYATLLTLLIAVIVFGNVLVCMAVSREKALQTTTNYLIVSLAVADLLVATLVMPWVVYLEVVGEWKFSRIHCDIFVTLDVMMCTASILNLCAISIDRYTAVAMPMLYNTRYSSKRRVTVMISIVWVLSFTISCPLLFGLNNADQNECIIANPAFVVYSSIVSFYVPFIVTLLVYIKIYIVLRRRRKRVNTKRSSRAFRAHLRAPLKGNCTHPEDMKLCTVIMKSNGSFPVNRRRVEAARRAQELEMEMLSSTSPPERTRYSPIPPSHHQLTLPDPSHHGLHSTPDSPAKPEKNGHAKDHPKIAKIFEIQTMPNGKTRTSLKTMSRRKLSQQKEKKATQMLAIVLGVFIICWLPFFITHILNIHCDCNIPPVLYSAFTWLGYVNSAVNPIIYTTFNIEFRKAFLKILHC

As for `CC1(C)CC(=O)C(=C(CCOCCOCCOCCOCCNC(=O)CCCC[C@@H]2SC[C@@H]3NC(=O)N[C@@H]32)NCCCC(=O)Nc2ccc(-n3nnc(C(=O)NCCCN4C(=O)CN=C(c5ccccc5)c5cc(Cl)ccc54)n3)cc2)C(=O)C1` [CPF-202], the “detection of GABA receptor subunits compared with the group treated with the unmodified ligand” value in experiment [1] is “specifically collected”.

Regarding `CC1(C)CC(=O)C(=C(CCOCCOCCOCCOCCNC(=O)CCCC[C@@H]2SC[C@@H]3NC(=O)N[C@@H]32)NCCCC(=O)Nc2ccc(-n3nnc(C(=O)NCc4ccn(-c5cc6c(cc5C(F)(F)F)[nH]c(=O)c(=O)n6CC(=O)O)c4)n3)cc2)C(=O)C1` [CPF-224], in experiment [2], the “detection of AMPA-type glutamate receptors compared with the group treated with the unmodified ligand” value is “specifically collected”.

`CC1(C)CC(=O)C(=C(CCOCCOCCOCCOCCNC(=O)CCCC[C@@H]2SC[C@@H]3NC(=O)N[C@@H]32)NCCCCCNC(=O)CCC2(CCC(=O)NCCCN3C(=O)CN=C(c4ccccc4)c4cc(Cl)ccc43)N=N2)C(=O)C1` [CPF-242]: the “detection of GABA receptor subunits compared with the group treated with the unmodified ligand” value in experiment [1] is given as “specifically collected”.

`CC1(C)CC(=O)C(=C(CCOCCOCCOCCOCCNC(=O)CCCC[C@@H]2SC[C@@H]3NC(=O)N[C@@H]32)NCCCC(=O)Nc2ccc(-n3nnc(C(=O)NCCCCC(=O)NCCCN4CCc5ccc(OCCCN6CCN(c7cccc8sccc78)CC6)cc5C4=O)n3)cc2)C(=O)C1` [CPP-127]: the “detection of dopamine receptor D2 compared with the group treated with the unmodified ligand” value in experiment [3] is listed as “specifically collected”.
